Data published in patent publication US4315858A, “Antibacterial amide compounds” (Warner-Lambert Company, priority 1980, dated 1982).
Values after ≈ are worked out from the molar mass of the structure shown.

Assays:
Format in all cases: cell-based
Serr. marces. = experiment: Minimal inhibitory concentration against Serr. marces.
Entero. cloacae = experiment: Minimal inhibitory concentration against Entero. cloacae; conditions: Enterobacter cloacae
Klebs. pneu. = experiment: Minimal inhibitory concentration against Klebs. pneu.
Staph. aureus S18713 = experiment: Minimal inhibitory concentration against Staph. aureus S18713; conditions: Staphylococcus aureus
[1] = tested on: Pseudomonas aeruginosa #28; experiment: Minimal inhibitory concentration against Pseudomonas aeruginosa #28

CC(=O)Nc1ccc(-c2ccc(C(=O)N[C@@H](C(=O)N[C@@H]3C(=O)N4[C@@H]3SC(C)(C)[C@@H]4C(=O)O)c3ccccc3)c(=O)[nH]2)cc1 [Example 1, N-[6-[4-(Acetylamino)phenyl]-1,2-dihydro-2-oxonicotinoyl]-ampicillin]
MIC (Serr. marces.): 25 µg/mL (≈ 41.4 µM) | MIC (Entero. cloacae): 12.5 µg/mL (≈ 20.7 µM) | MIC (Klebs. pneu.): 6.3 µg/mL (≈ 10.4 µM) | MIC (Staph. aureus S18713): 100 µg/mL (≈ 166 µM) | MIC [1]: 3.1 µg/mL (≈ 5.14 µM)

CC(=O)Nc1ccc(-c2ccc(C(=O)N[C@@H](C(=O)N[C@@H]3C(=O)N4[C@@H]3SC(C)(C)[C@@H]4C(=O)O)c3ccc(O)cc3)c(=O)[nH]2)cc1 [Example 2, N-[6-[4-(acetylamino)phenyl]-1,2-dihydro-2-oxonicotinoyl]amoxicillin]
MIC (Serr. marces.): 25 µg/mL (≈ 40.3 µM) | MIC (Entero. cloacae): 6.3 µg/mL (≈ 10.2 µM) | MIC (Klebs. pneu.): 12.5 µg/mL (≈ 20.2 µM) | MIC (Staph. aureus S18713): 200 µg/mL (≈ 323 µM) | MIC [1]: 3.1 µg/mL (≈ 5 µM)

CC1(C)S[C@@H]2[C@H](NC(=O)[C@H](NC(=O)c3ccc(-c4ccc(NC(=O)C(F)(F)F)cc4)[nH]c3=O)c3ccccc3)C(=O)N2[C@H]1C(=O)O [Example 3, N-[6-[4(Trifluoroacetylamino)phenyl]-1,2-dihydro-2-oxonicotinoyl]ampicillin]
MIC (Serr. marces.): 25 µg/mL (≈ 38 µM) | MIC (Entero. cloacae): 3.1 µg/mL (≈ 4.71 µM) | MIC (Klebs. pneu.): 6.3 µg/mL (≈ 9.58 µM) | MIC (Staph. aureus S18713): 200 µg/mL (≈ 304 µM) | MIC [1]: 6.3 µg/mL (≈ 9.58 µM)

CC1(C)S[C@@H]2[C@H](NC(=O)[C@H](NC(=O)c3ccc(-c4ccc(NC(=O)C(F)(F)F)cc4)[nH]c3=O)c3ccc(O)cc3)C(=O)N2[C@H]1C(=O)O [Example 4, N-[6-[4-(Trifluoroacetylamino)phenyl]-1,2-dihydro-2-oxonicotinoyl]amoxicillin]
MIC (Serr. marces.): 100 µg/mL (≈ 148 µM) | MIC (Entero. cloacae): 3.1 µg/mL (≈ 4.6 µM) | MIC (Klebs. pneu.): 3.1 µg/mL (≈ 4.6 µM) | MIC (Staph. aureus S18713): 100 µg/mL (≈ 148 µM) | MIC [1]: 1.6 µg/mL (≈ 2.38 µM)

CC1(C)S[C@@H]2[C@H](NC(=O)[C@H](NC(=O)c3ccc(-c4ccc(NC(=O)CC#N)cc4)[nH]c3=O)c3ccc(O)cc3)C(=O)N2[C@H]1C(=O)O [Example 5]
MIC (Serr. marces.): 200 µg/mL (≈ 310 µM) | MIC (Entero. cloacae): 1.6 µg/mL (≈ 2.48 µM) | MIC (Klebs. pneu.): 3.1 µg/mL (≈ 4.81 µM) | MIC (Staph. aureus S18713): 100 µg/mL (≈ 155 µM) | MIC [1]: 1.6 µg/mL (≈ 2.48 µM)

CC1(C)S[C@@H]2[C@H](NC(=O)[C@H](NC(=O)c3ccc(-c4ccc(NC(=O)Cc5nn[nH]n5)cc4)[nH]c3=O)c3ccc(O)cc3)C(=O)N2[C@H]1C(=O)O [Example 6]
MIC (Serr. marces.): 1.6 µg/mL (≈ 2.33 µM) | MIC (Entero. cloacae): 1.6 µg/mL (≈ 2.33 µM) | MIC (Klebs. pneu.): 12.5 µg/mL (≈ 18.2 µM) | MIC (Staph. aureus S18713): > 50 µg/mL | MIC [1]: 3.1 µg/mL (≈ 4.51 µM)

CC(=O)C(=O)Nc1ccc(-c2ccc(C(=O)N[C@@H](C(=O)N[C@@H]3C(=O)N4[C@@H]3SC(C)(C)[C@@H]4C(=O)O)c3ccc(O)cc3)c(=O)[nH]2)cc1 [Example 7, N-[6-[4-(1,2-Dioxopropylamino)phenyl]-1,2-dihydro-2-oxonicotinoyl]amoxicillin]
MIC (Serr. marces.): 3.1 µg/mL (≈ 4.79 µM) | MIC (Entero. cloacae): 3.1 µg/mL (≈ 4.79 µM) | MIC (Klebs. pneu.): 12.5 µg/mL (≈ 19.3 µM) | MIC (Staph. aureus S18713): 25 µg/mL (≈ 38.6 µM) | MIC [1]: 1.6 µg/mL (≈ 2.47 µM)

CC1(C)S[C@@H]2[C@H](NC(=O)[C@H](NC(=O)c3ccc(-c4ccc(NC(=O)CSCC(F)(F)F)cc4)[nH]c3=O)c3ccc(O)cc3)C(=O)N2[C@H]1C(=O)O [Example 8]
MIC (Serr. marces.): 0.4 µg/mL (≈ 0.545 µM) | MIC (Entero. cloacae): 6.3 µg/mL (≈ 8.59 µM) | MIC (Klebs. pneu.): 3.1 µg/mL (≈ 4.22 µM) | MIC (Staph. aureus S18713): > 50 µg/mL | MIC [1]: 0.8 µg/mL (≈ 1.09 µM)

CC1(C)S[C@@H]2[C@H](NC(=O)[C@H](NC(=O)c3ccc(-c4ccc(NC(=O)CSCC#N)cc4)[nH]c3=O)c3ccc(O)cc3)C(=O)N2[C@H]1C(=O)O [Example 9]
MIC (Serr. marces.): 1.6 µg/mL (≈ 2.32 µM) | MIC (Entero. cloacae): 12.5 µg/mL (≈ 18.1 µM) | MIC (Klebs. pneu.): 6.3 µg/mL (≈ 9.12 µM) | MIC (Staph. aureus S18713): > 50 µg/mL | MIC [1]: 1.6 µg/mL (≈ 2.32 µM)

CCOC(=O)C(=O)Nc1ccc(-c2ccc(C(=O)N[C@@H](C(=O)N[C@@H]3C(=O)N4[C@@H]3SC(C)(C)[C@@H]4C(=O)O)c3ccc(O)cc3)c(=O)[nH]2)cc1 [Example 10, N-[6-[4-[(2-Ethoxy-1,2-dioxoethyl)amino]phenyl]-1,2-dihydro-2-oxonicotinoyl]amoxicillin]
MIC (Serr. marces.): 200 µg/mL (≈ 295 µM) | MIC (Entero. cloacae): 1.6 µg/mL (≈ 2.36 µM) | MIC (Klebs. pneu.): 6.3 µg/mL (≈ 9.3 µM) | MIC (Staph. aureus S18713): 50 µg/mL (≈ 73.8 µM) | MIC [1]: 6.3 µg/mL (≈ 9.3 µM)

CC1(C)S[C@@H]2[C@H](NC(=O)[C@H](NC(=O)c3ccc(-c4ccc(NC(=O)OCc5ccccc5)cc4)[nH]c3=O)c3ccccc3)C(=O)N2[C@H]1C(=O)O [Example 11, N-[6-[4-(Benzyloxycarbonylamino)phenyl]-1,2-dihydro-2-oxonicotinoyl]ampicillin]
MIC (Serr. marces.): 12.5 µg/mL (≈ 18 µM) | MIC (Entero. cloacae): 6.3 µg/mL (≈ 9.05 µM) | MIC (Klebs. pneu.): 0.8 µg/mL (≈ 1.15 µM) | MIC (Staph. aureus S18713): 50 µg/mL (≈ 71.9 µM) | MIC [1]: 1.6 µg/mL (≈ 2.3 µM)

COC(=O)Nc1ccc(-c2ccc(C(=O)N[C@@H](C(=O)N[C@@H]3C(=O)N4[C@@H]3SC(C)(C)[C@@H]4C(=O)O)c3ccc(O)cc3)c(=O)[nH]2)cc1 [Example 12, N-[6-[4-(Methoxycarbonylamino)phenyl]-1,2-dihydro-2-oxonicotinoyl]amoxicillin]
MIC (Serr. marces.): 25 µg/mL (≈ 39.3 µM) | MIC (Entero. cloacae): 1.6 µg/mL (≈ 2.52 µM) | MIC (Klebs. pneu.): 3.1 µg/mL (≈ 4.88 µM) | MIC (Staph. aureus S18713): 100 µg/mL (≈ 157 µM) | MIC [1]: 1.6 µg/mL (≈ 2.52 µM)

CC1(C)S[C@@H]2[C@H](NC(=O)[C@H](NC(=O)c3ccc(-c4ccc(NC(=O)Cc5ccccc5)cc4)[nH]c3=O)c3ccc(O)cc3)C(=O)N2[C@H]1C(=O)O [Example 13, N-[6-[4-(Phenylacetylamino)phenyl]-1,2-dihydro-2-oxonicotinoyl]amoxicillin]
MIC (Serr. marces.): 50 µg/mL (≈ 71.9 µM) | MIC (Entero. cloacae): 1.6 µg/mL (≈ 2.3 µM) | MIC (Klebs. pneu.): 3.1 µg/mL (≈ 4.46 µM) | MIC (Staph. aureus S18713): 50 µg/mL (≈ 71.9 µM) | MIC [1]: 1.6 µg/mL (≈ 2.3 µM)

CCNC(=O)Nc1ccc(-c2ccc(C(=O)N[C@@H](C(=O)N[C@@H]3C(=O)N4[C@@H]3SC(C)(C)[C@@H]4C(=O)O)c3ccc(O)cc3)c(=O)[nH]2)cc1 [Example 14, N-[6-[4-(N-Ethylcarbamoylamino)phenyl]-1,2-dihydro-2-oxonicotinoyl]amoxicillin]
MIC (Serr. marces.): 0.8 µg/mL (≈ 1.23 µM) | MIC (Entero. cloacae): 3.1 µg/mL (≈ 4.78 µM) | MIC (Klebs. pneu.): 6.3 µg/mL (≈ 9.71 µM) | MIC (Staph. aureus S18713): 50 µg/mL (≈ 77.1 µM) | MIC [1]: 0.8 µg/mL (≈ 1.23 µM)

CC(=O)Nc1cccc(-c2ccc(C(=O)N[C@@H](C(=O)N[C@@H]3C(=O)N4[C@@H]3SC(C)(C)[C@@H]4C(=O)O)c3ccccc3)c(=O)[nH]2)c1 [Example 15, N-[6-[3-(Acetylamino)phenyl]-1,2-dihydro-2-oxonicotinoyl]ampicillin]
MIC (Serr. marces.): 12.5 µg/mL (≈ 20.7 µM) | MIC (Entero. cloacae): 6.3 µg/mL (≈ 10.4 µM) | MIC (Klebs. pneu.): 3.1 µg/mL (≈ 5.14 µM) | MIC (Staph. aureus S18713): > 200 µg/mL | MIC [1]: 6.3 µg/mL (≈ 10.4 µM)
